Drawing on the METLIN SMRT retention time set (Domingo-Almenara et al. 2019), this text covers RP-LC retention time for 59 compounds.

SMILES strings stand for the structures.

The nature of this data set: gradient 5% acetonitrile 3 min, to 50% in 2 min, to 85% in 15 min, held 3 min, 100 µL/min. The settings on record: column: Zorbax Extend-C18 2.1 x 50 mm; eluents: water / acetonitrile, 0.1% formic acid. The method, boiled down: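 A Zorbax Extend-C18 column (2.1 × 50 mm, 1.8 μm) run at 100 μL/min with water and acetonitrile, both containing 0.1% formic acid, separated mixtures of ~100 pure standards. The HPLC was coupled to a quadrupole time-of-flight mass spectrometer operated in positive and negative ionization mode, with dead and dwell volumes of 40 μL and 900 μL. Each retention time was taken from a computationally picked adduct peak that was then manually inspected.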
Regarding `CCOC(=O)c1c(C)oc2nc(C)nc(NCCN3CCN(c4ccc(OC)cc4)CC3)c12`, the RP-LC retention time is 732 s. The compound `COc1ccccc1CNC(=O)C1CCCN1S(=O)(=O)c1ccc2c(c1)C(C)(C)C(=O)N2C` (centres undefined) yielded an RP-LC retention time of 843 s. As for `O=C(CN1CCC(c2nc(-c3ccc(F)cc3)no2)CC1)NC1CCCC1`, the figure is 678 s; as for `CCc1nn2c(CNC(=O)c3ccccn3)c(-c3ccccc3)nc2s1`, 891 s. `O=C(NCCCc1ccccc1)C1CCN(S(=O)(=O)c2ccc(-c3noc(C4CC4)n3)cc2)CC1` yielded an RP-LC retention time of 1060 s. To `CC(C(=O)NCCCN1CCCCCC1)n1ccc2cc(S(=O)(=O)N3CCCCCC3)ccc21` (centres undefined) belongs 604 s; to `COc1ccc(-c2nnc(-c3ccccc3)o2)cc1S(N)(=O)=O`, 716 s. `COc1cc(OC)c(NC(=O)Cn2cccc2-c2nc(-c3ccc4c(c3)OCO4)no2)cc1Cl` registered an RP-LC retention time of 1110 s. In turn, `Cn1nc(-c2nnc(-c3ccccc3)o2)c2c1CCN(S(=O)(=O)c1ccc3c(c1)CCCC3)C2` registered an RP-LC retention time of 1110 s.

For `CC(Oc1ccc(=O)n(-c2ccc(F)cc2)n1)C(=O)Nc1ccccc1F` (centres undefined), the RP-LC retention time is 772 s. As for `O=S(=O)(Nc1ccc(Cl)cc1F)c1c[nH]c2ncccc12`, the figure is 740 s; as for `O=c1c2ncccc2n(Cc2c(F)cccc2Cl)c(=O)n1Cc1cccnc1`, 852 s; as for `COc1cccc(NC(=O)N2CCCC(C)(C(=O)NCc3ccccc3C)C2)c1` (centres undefined), 890 s. To `Cc1ccc(CNC(=O)Cc2csc3nc(-c4ccc(C)c(C)c4)cn23)cc1` belongs 896 s; to `Cc1cnc(-c2ccccc2C(C)C)nc1NCc1ccc(-n2ccnn2)cc1`, 770 s. For the compound `COc1ccc(-c2nc(C)cc(C)c2CNC(=O)C2CCC2)cc1`, the RP-LC retention time amounted to 584 s. As for `CC1CCN(C(=O)C2=NN(Cc3ccc(F)cc3)c3ccccc3S2(=O)=O)CC1`, the RP-LC retention time was 1000 s. In the case of `CNC(=O)[C@@H]1CN(S(=O)(=O)c2ccc(Cl)s2)C[C@H]1c1nc(C)no1`, the RP-LC retention time was 758 s. Turning to `CCN1CCCC1CN(CC(=O)N1CCNCC1)S(=O)(=O)c1cc(C)ccc1C` (centres undefined), the RP-LC retention time turned out to be 581 s. In turn, `Cc1ccc2nc(CN3CCN(C(=O)NCc4ccc(F)cc4)CC3)oc2c1` displayed an RP-LC retention time of 690 s.

In turn, `CCN1C(=O)C2(CCN(C(=O)c3cc(C)n(C)n3)CC2)c2ccccc21` gave an RP-LC retention time of 750 s.

With `CC(=O)NCC(=O)N1CCCn2cc(-c3ccc4c(c3)OCO4)nc21`, the RP-LC retention time turned out to be 487 s. To `Cc1cc(C(=O)NC2CCc3nnc(C4CC4)n3CC2)c(C)n1Cc1ccco1` (centres undefined) belongs 660 s. To `O=C(Cn1nc(N2CCOCC2)c2ccccc2c1=O)Nc1cccc(Br)c1` belongs 844 s; to `CCOc1ccc(C(=O)N2CCC3(CC2)NC(=O)c2cc(F)ccc2N3CC)cc1`, 836 s; to `N#Cc1ccc(C(=O)NCC(=O)N2CCCc3ccccc32)c(F)c1`, 843 s.

As for `CCCn1cc(CCNC(=O)Nc2ccc(F)cc2F)c2cccnc21`, the RP-LC retention time turned out to be 806 s. On to `O=C(CN1C(=O)C2CCCCN2c2ccc(S(=O)(=O)N3CCCC3)cc21)N1CCOCC1` (centres undefined), for which the RP-LC retention time turned out to be 750 s. The compound `CCCN1C(=O)c2c(C(=O)NCc3cccc(F)c3)ncn2CC1(C)C(=O)NC1CCCC1` (centres undefined) gave an RP-LC retention time of 821 s.

For the compound `Cc1c(Cl)cccc1-n1ccnc(NC(=O)Nc2ccc3c(c2)OCO3)c1=O`, the RP-LC retention time is 995 s. Consider `CC(NC(=O)c1ccncc1)C(=O)Nc1nc2ccccc2[nH]1` (centres undefined), for which the RP-LC retention time turned out to be 566 s.

Turning to `O=C(CSc1ccc(-c2ccc(-n3ccnc3)cc2)nn1)NCc1ccco1`, the RP-LC retention time is 554 s. Compound `CCn1cc(-c2ccncc2)cc1C(=O)NCc1ccc2c(c1)OCO2` had an RP-LC retention time of 641 s. As for `Cc1nnc(-c2sccc2C)o1`, the RP-LC retention time is 742 s. Consider `CCN(CC)CCCNC(=O)c1ccc(-c2ccc3c(c2)CCN3C(C)=O)cc1`, for which the RP-LC retention time was 612 s.

Compound `CCN1c2ccccc2C(=O)NC12CCN(C(=O)c1ccc(C)cc1)CC2` had an RP-LC retention time of 804 s. `O=C(Cc1cccc(Cl)c1)N1[C@H]2CC[C@@H]1c1cnc(-c3ccccc3)nc1C2` registered an RP-LC retention time of 990 s. To `Cc1nc2cc(-c3noc(-c4ncoc4-c4ccccc4)n3)ccc2o1` belongs 1020 s; to `Cc1noc(C)c1CCC(=O)N1CCCC1CCc1ncc(C)n1CC1CC1` (centres undefined), 662 s. For `Cc1ccc(-c2ncccc2CNS(=O)(=O)c2ccc(F)c(C)c2)cc1`, the RP-LC retention time is 743 s. In turn, `CN1C(=O)c2cc(S(=O)(=O)NCc3ccccc3Cl)ccc2Oc2cccnc21` came in with an RP-LC retention time of 903 s. To `COC[C@@H]1CN(S(=O)(=O)C(C)C)C[C@H]1c1ccccn1` belongs 619 s; to `Cc1cc(C(=O)NC(C)C)c2cccc(Cl)c2n1`, 718 s. In turn, `COc1cc2c(cc1OC)CN(C(=O)c1cc(-c3cccs3)[nH]n1)CC2` showed an RP-LC retention time of 703 s.

`Cn1c(=O)c(SCC(=O)NCc2cccc(Br)c2)nc2cccnc21` gave an RP-LC retention time of 806 s. Compound `Cc1[nH]c(C)c(S(=O)(=O)N2CCC(C(=O)N(C)C3CCCCC3)CC2)c1C(=O)N1CCCCC1` registered an RP-LC retention time of 762 s. As for `Cc1ccc(F)c(NS(=O)(=O)c2cc(-c3[nH]ncc3C(=O)N(C)C)oc2C)c1`, the RP-LC retention time is 676 s. As for `COc1ccccc1NC(=O)c1ccc(CSc2ncccn2)cc1`, the RP-LC retention time worked out at 603 s. As for `CCN1CCN(c2cc(C)c3cc(NC(=O)COc4ccccc4)ccc3n2)CC1`, the figure is 609 s; as for `Cc1ccc(C)c(N2CCN(c3ccnc(SCC(=O)NC4CCCC4)n3)CC2)c1`, 886 s. Turning to `COc1ccccc1CNC(=O)C1=C2CCCN2c2ccc(F)cc2S1(=O)=O`, the RP-LC retention time was 882 s. As to `CCCCS(=O)(=O)c1cc2c(cc1NC(=O)c1ccc(C)cc1)n(C)c(=O)n2C`, the RP-LC retention time was found to be 955 s.

On to `N#Cc1ccc2ccn(CC(=O)N3CCCc4ccccc43)c2c1`, for which the RP-LC retention time came out at 963 s.

Consider `c1cc(-c2nc(-c3ccc4c(c3)ncn4CCN3CCCCC3)no2)co1`, for which the RP-LC retention time is 598 s. To `COc1ccccc1NC(=O)N1CCCC(C)(C(=O)NCc2ccc(C)cc2)C1` (centres undefined) belongs 898 s; to `Cc1nc(-c2ccc(C(=O)N3CCC(C(=O)N4CCc5ccccc54)CC3)cc2)no1`, 816 s; to `Cc1ccsc1C(=O)N1CC(Oc2ccc(-c3nc(-c4ccccc4)no3)cc2)C1`, 1250 s. As to `O=C1NCCCn2cc(S(=O)(=O)N3CCN(c4ccccn4)CC3)cc21`, the RP-LC retention time came to 550 s. `COc1ccc(NC(=O)CN2C(=O)CCc3cc(Br)ccc32)c(OC)c1` showed an RP-LC retention time of 900 s.
